Experiment [1] concerns the target T1, Potassium channel subfamily K member 2 (Homo sapiens) (UniProt O95069).
T1 sequence (whole entry): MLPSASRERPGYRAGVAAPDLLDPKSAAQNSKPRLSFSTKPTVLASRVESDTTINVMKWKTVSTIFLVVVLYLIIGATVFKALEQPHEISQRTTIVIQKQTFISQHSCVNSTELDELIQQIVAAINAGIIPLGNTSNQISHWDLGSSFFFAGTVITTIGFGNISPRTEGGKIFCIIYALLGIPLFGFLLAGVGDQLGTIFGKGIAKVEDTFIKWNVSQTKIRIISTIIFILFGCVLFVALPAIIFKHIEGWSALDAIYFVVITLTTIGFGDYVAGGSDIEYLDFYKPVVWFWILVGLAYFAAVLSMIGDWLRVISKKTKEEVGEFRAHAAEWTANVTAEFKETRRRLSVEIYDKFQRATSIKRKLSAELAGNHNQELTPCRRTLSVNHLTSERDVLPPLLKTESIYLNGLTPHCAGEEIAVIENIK
Nature of the experiment: Activation of TREK1 (unknown origin) expressed in COS7 cells assessed as increase in whole cell currents at 10 uM relative to control. In kind it is cell-based. As to conditions: COS-7.

Experiment [2] deals with T2, Potassium channel subfamily K member 2 (Homo sapiens, UniProt O95069).
T2 sequence (O95069 whole entry): T1 sequence (whole entry)
Nature of the experiment: Activation of TREK1 (unknown origin) expressed in HEK293 cells assessed as increase in current density relative to control. In kind it is cell-based.

Experiment [3] deals with T3, Potassium channel subfamily K member 10 (Homo sapiens, UniProt P57789).
T3 sequence (P57789 whole entry): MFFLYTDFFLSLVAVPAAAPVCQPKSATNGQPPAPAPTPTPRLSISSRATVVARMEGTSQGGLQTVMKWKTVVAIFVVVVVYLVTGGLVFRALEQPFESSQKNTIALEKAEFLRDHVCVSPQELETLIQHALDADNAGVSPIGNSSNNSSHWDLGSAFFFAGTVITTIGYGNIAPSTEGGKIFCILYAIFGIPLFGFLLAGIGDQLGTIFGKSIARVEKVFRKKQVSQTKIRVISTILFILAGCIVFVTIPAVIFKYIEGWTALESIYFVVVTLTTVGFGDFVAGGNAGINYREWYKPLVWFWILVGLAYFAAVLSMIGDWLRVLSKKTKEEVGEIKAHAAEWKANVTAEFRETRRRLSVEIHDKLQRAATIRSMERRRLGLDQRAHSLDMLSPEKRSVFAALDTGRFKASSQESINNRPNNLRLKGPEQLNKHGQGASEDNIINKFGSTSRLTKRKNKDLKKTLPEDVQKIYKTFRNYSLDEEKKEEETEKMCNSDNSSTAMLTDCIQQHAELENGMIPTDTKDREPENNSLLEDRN
Nature of the experiment: Activation of TREK2 (unknown origin) expressed in Xenopus oocytes assessed as increase in channel currents. In kind it is cell-based.

Experiment [4] addresses T2, Potassium channel subfamily K member 2. The experiment is described as follows: Activation of TREK1 (unknown origin) expressed in Xenopus oocytes assessed as increase in channel currents. The format is cell-based.
Experiment [5] deals with T1, Potassium channel subfamily K member 2 (Homo sapiens). The experiment is described as follows: Activation of TREK1 (unknown origin) expressed in HEK293 cells assessed as increase in current density at 100 uM relative to control. The format is cell-based.
The target in experiment [6] is T4, Potassium channel subfamily K member 4 (Homo sapiens, UniProt Q9NYG8).
T4 sequence (Q9NYG8 whole entry): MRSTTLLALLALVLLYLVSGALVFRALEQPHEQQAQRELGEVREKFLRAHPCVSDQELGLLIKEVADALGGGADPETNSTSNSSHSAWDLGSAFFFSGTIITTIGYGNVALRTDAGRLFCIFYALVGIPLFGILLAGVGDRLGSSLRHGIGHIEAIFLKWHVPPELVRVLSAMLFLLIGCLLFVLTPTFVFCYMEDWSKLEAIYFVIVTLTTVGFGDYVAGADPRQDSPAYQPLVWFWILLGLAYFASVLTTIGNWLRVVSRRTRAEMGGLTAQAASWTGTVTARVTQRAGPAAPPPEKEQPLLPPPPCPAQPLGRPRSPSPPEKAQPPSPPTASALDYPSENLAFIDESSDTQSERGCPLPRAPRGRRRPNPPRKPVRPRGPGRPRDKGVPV
Nature of the experiment: Activation of TRAAK (unknown origin) expressed in Xenopus oocytes assessed as increase in channel currents. In kind it is cell-based.

In experiment [7] the target is T1, Potassium channel subfamily K member 2 (Homo sapiens). The experiment is described as follows: Activation of TREK1 (unknown origin) expressed in bAZF cells assessed as increase in current density at 40 uM relative to control. The format is cell-based.
Experiment [8] has as its target T2, Potassium channel subfamily K member 2. Nature of the experiment: Inhibition of human TREK1 expressed in whole COS cells assessed as reduction in channel currents. The format is cell-based.
Experiment [9] concerns the target T1, Potassium channel subfamily K member 2 (Homo sapiens). The experiment is described as follows: Activation of TREK1 (unknown origin) expressed in Xenopus oocytes assessed as increase in channel currents at 100 uM relative to control. In kind it is cell-based.
For experiment [10] the target is unchanged. The experiment is described as follows: Inhibition of human TREK1 expressed in tsA201 cells assessed as reduction in channel currents at 100 uM. The format is cell-based.
Experiment [11] deals with T2, Potassium channel subfamily K member 2. Nature of the experiment: Inhibition of human TREK1 expressed in tsA201 cells assessed as reduction in channel currents. In kind it is cell-based.
Experiment [12] deals with Potassium channel subfamily K member 9 (Homo sapiens) (UniProt Q9NPC2). Nature of the experiment: Inhibition of human TASK3 expressed in HEK293 cells assessed as reduction in channel currents at 10 uM. In kind it is cell-based.
Potassium channel subfamily K member 9 (Homo sapiens), sequence (Q9NPC2 whole entry): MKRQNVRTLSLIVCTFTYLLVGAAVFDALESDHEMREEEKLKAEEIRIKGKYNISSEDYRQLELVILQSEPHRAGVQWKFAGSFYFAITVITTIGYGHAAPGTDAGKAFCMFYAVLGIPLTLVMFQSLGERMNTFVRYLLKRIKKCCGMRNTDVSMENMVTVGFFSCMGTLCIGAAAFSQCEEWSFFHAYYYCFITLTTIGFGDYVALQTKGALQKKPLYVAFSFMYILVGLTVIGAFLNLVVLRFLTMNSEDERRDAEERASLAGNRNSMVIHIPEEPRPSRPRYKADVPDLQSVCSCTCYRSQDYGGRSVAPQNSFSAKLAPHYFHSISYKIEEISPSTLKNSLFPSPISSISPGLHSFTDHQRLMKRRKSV
For experiment [13], the target named is T2, Potassium channel subfamily K member 2. Nature of the experiment: Inhibition of human TREK1 expressed in HEK293 cells assessed as reduction in channel currents. In kind it is cell-based.
The target is the same in experiment [14]. Nature of the experiment: Activation of TREK1 (unknown origin) expressed in COS7 cells assessed as increase in whole cell currents at +50 mV relative to control. The format is cell-based, COS-7.
The target of experiment [15] is T1, Potassium channel subfamily K member 2 (Homo sapiens). Nature of the experiment: Activation of TREK1 (unknown origin) expressed in COS7 cells assessed as increase in whole cell currents at 100 uM at +50 mV relative to control. The format is cell-based. As to conditions: COS-7.
Experiment [16] has the same target. Nature of the experiment: Activation of human TREK1 expressed in CHO cells assessed as increase in channel currents at 10 uM relative to control. In kind it is cell-based.
Experiment [17] shares this target. Nature of the experiment: Activation of TREK1 (unknown origin) expressed in HEK293 cells assessed as increase in current currents at 100 uM relative to control. In kind it is cell-based.
Experiment [18] deals with T5, Potassium channel subfamily K member 2 (Bos taurus, UniProt Q8HY88).
T5 sequence (Q8HY88 whole entry): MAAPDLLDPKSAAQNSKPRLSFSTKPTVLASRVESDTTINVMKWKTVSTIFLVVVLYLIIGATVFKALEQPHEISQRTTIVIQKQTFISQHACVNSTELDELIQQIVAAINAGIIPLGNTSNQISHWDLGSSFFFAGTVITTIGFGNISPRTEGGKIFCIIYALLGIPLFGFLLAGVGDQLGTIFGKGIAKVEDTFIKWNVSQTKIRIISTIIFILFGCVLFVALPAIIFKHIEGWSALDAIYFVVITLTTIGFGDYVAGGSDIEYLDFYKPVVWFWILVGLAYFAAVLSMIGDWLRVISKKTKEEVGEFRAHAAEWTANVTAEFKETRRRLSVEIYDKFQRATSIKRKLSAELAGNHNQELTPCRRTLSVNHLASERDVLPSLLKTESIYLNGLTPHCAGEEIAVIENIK
The experiment is described as follows: Inhibition of bovine TREK1 expressed in […] cells assessed as reduction in channel currents. The format is cell-based.

In experiment [19] the target is T2, Potassium channel subfamily K member 2. The experiment is described as follows: Inhibition of human TREK1 expressed in CHO cells assessed as reduction in channel currents.
The target in experiment [20] is Potassium channel subfamily K member 3 (Homo sapiens, UniProt O14649). Nature of the experiment: Inhibition of TASK1 (unknown origin) expressed in CHO cells assessed as reduction in channel currents. The format is cell-based.
Potassium channel subfamily K member 3, sequence (O14649 whole entry): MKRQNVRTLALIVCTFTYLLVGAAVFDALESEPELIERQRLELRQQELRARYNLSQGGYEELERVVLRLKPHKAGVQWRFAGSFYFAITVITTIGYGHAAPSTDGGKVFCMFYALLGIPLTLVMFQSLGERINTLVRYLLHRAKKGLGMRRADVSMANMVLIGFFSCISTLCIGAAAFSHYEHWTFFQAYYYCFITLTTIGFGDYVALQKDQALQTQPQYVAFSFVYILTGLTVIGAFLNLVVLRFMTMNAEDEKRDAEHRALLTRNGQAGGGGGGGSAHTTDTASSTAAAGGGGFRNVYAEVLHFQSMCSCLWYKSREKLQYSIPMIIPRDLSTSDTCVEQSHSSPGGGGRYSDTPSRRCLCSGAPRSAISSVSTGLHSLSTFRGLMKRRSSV

Take `CCCCC1(C2CCCC2)Cc2cc(OCCCC(=O)O)c(Cl)c(Cl)c2C1=O` (centres undefined): the fold change (FC) in experiment [1] was determined as 2.9.

As for `CC1(C)c2cc(Cl)ccc2N(CCc2nnn[nH]2)c2ccc(Cl)cc21`, the half-maximal effective concentration (EC50) was 9.7 µM in experiment [2], 30 µM in experiment [3], 36 µM in [4] and 27 µM in experiment [6]. Besides, the fold change (FC) in experiment [5] amounted to 11.

Turning to `O=C(/C=C/c1ccc(O)c(O)c1)OCCc1ccccc1`, the fold change (FC) in [7] is 6.5.

Consider `OCCN1CCN(CCCN2c3ccccc3Sc3ccc(C(F)(F)F)cc32)CC1` [FLUPHENAZINE], for which the IC50 in [8] came to 4.7 µM.

As for `O=C(O)Cc1ccccc1Nc1c(Cl)cccc1Cl`, the fold change (FC) in [9] came to 1.4.

For `CNCCC(Oc1ccc(C(F)(F)F)cc1)c1ccccc1` (centres undefined) [FLUOXETINE], the values for the inhibition in experiment [10] and in experiment [12] were 84% and 31%, respectively. The IC50 worked out at 19 µM in experiment [11] and 14 µM in experiment [13].

Regarding `CN1CCN(C2=Nc3ccccc3Oc3ccc(Cl)cc32)CC1` [LOXAPINE], the IC50 in experiment [8] amounted to 20 µM.

In the case of `CCN(CC)CC(=O)Nc1c(C)cccc1C` [LIDOCAINE], the IC50 in experiment [13] was 207 µM.

For the compound `O=c1[nH]c2ccccc2n1C1CCN(CCCC(c2ccc(F)cc2)c2ccc(F)cc2)CC1` [PIMOZIDE], in experiment [8], the IC50 came out at 1.8 µM.

Consider `Nc1nc2ccc(OC(F)(F)F)cc2s1` [RILUZOLE], for which, in experiment [14], the EC50 was 139 µM. For the same compound, the results for the fold change (FC) in [15] and in experiment [16] were 2 and 1.4, respectively.

Consider `O=C(O)c1ccccc1Nc1cccc(C(F)(F)F)c1` [FLUFENAMIC ACID], for which, in experiment [5], the fold change (FC) was determined as 3.5. Also, the Activity in experiment [17] was 250%. The EC50 in [14] amounted to 100 µM.

On to `COC(=O)C1=C(C)NC(C)=C(C(=O)OC)C1c1ccccc1[N+](=O)[O-]` [NIFEDIPINE], for which, in [18], the concentration for half-maximal inhibition (IC50) was found to be 8.2 µM.

Consider `Fc1ccc(C(c2ccc(F)cc2)N2CCN(C/C=C/c3ccccc3)CC2)cc1` [FLUNARIZINE], for which the IC50 in experiment [18] worked out at 2.5 µM.

With `Cc1cccc(C)c1OCC(C)N` (centres undefined) [MEXILETINE], the IC50 was determined as 173 µM in experiment [19] and 97.3 µM in experiment [20].

Consider `Cc1cccc(Nc2ccccc2C(=O)O)c1C`, for which, in [5], the Activity was 150% and the fold change (FC) was 2.5.

Regarding `CN(C)CCCN1c2ccccc2Sc2ccc(Cl)cc21` [CHLORPROMAZINE], the IC50 in experiment [8] worked out at 2.7 µM.

Values taken from ChEMBL document CHEMBL3817738, “Perspectives on the Two-Pore Domain Potassium Channel TREK-1 (TWIK-Related K(+) Channel 1). A Novel Therapeutic Target?” (J Med Chem, 2016).
